Assays:
A. ficuum 3-phytase = assay: 3-phytase assay with HPLC analysis; assay type: biochemical
Procedure: (§1) Referring now to FIGS. 2 through 5, the aforesaid exemplary probe according to the instant invention (compound 2 of FIG. 1) was employed in assays of 3-phytase and 6-phytase activity. The 3-phytase assay consisted of a solution combining A. ficuum 3-phytase (0.27 U) and the penta-ammonium salt of compound 2 (1.2 mM in glycine-HCl buffer 0.2M, pH 2.6, 3 mL). The 3-phytase assay was carried out at 37° C. The 6-phytase assay consisted of a solution combining wheat 6-phytase (0.27 U) and compound 2 (1.2 mM in sodium acetate buffer, 0.2M, pH 5.2, 3 mL). The 6-phytase assay was carried out at 50° C.
(§2) Control assays were similarly prepared but lacked the phytase enzyme. Assays were carried out in tinted vials, capped with septa and stirred continuously. Aliquot samples (30 μL) were taken and diluted with methanol-water (58:42, 970 μL) for HPLC analysis over the 24-hour time course of the assay.
(§3) Mobile phase (pH 4.0) was prepared by mixing methanol (580 mL), water (420 mL), tetrabutylammonium hydroxide (8 mL), 5N aqueous sulfuric acid (0.5 mL), and 6.4 mM aqueous phytic acid (0.2 mL). HPLC analysis was performed on an analytical HPLC system using a reversed phase column (Hamilton PRP-1, 5 μm, 150×4.6 mm). Compounds were quantified by the external standards method.

wheat 6-phytase = assay: 6-phytase assay with HPLC analysis; assay type: biochemical; conditions: 0.27 U enzyme, 1.2 mM substrate, sodium acetate buffer 0.2M, pH 5.2, 50° C.
Procedure: as §1, §2, §3

## O=C(NCCCCCCOC1[C@@H](OP(=O)(O)O)[C@H](OP(=O)(O)O)C(OP(=O)(O)O)[C@H](OP(=O)(O)O)[C@H]1OP(=O)(O)O)c1ccccc1 (stereo partly drawn) [compound 2, 5-O-[6-(benzoylamino)hexyl]-D-myo-inositol-1,2,3,4,6-pentakisphosphate]
A. ficuum 3-phytase; 3-phytase, accumulation of the triphosphate, no significant diphosphate peak
  rate limiting step of the production of compound 7 from compound 2: conversion of triphosphate to diphosphate
A. ficuum 3-phytase; after 24 hours of incubation, 0.27 U enzyme, 1.2 mM substrate, glycine-HCl buffer 0.2M, pH 2.6, 37° C., HPLC
  conversion of compound 2 to compound 7 (complete dephosphorylation) in the presence of 3-phytase: completely converted
A. ficuum 3-phytase; control lacking the phytase enzyme, 24 hours, glycine-HCl buffer pH 2.6, 37° C., HPLC
  conversion in the enzyme free control: no conversion
A. ficuum 3-phytase; in the assay and in the control
  amide bond cleavage separating the UV chromophore from the phytic acid core (benzoic acid by HPLC): no benzoic acid could be detected
Wheat 6-phytase
  substrate for 6-phytase (sequential dephosphorylation, HPLC): serves equally well as a substrate

— patent US7741506B2, “Probe for measuring phytase activity” (Berry & Associates, Inc., priority 2005, dated 2010)
